Results from ChEMBL document CHEMBL1201862, “PubChem BioAssay data set” (2004).
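Following 48 hours of exposure in 96-well plates, responses at five concentrations were used to interpolate endpoints linearly. At the GI50, growth is halved.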 Active and inactive are the calls of the source. Cut-off read from the data, not from the text of the source: active = GI50 up to about 1.1 µM and inactive = higher.

How the values were obtained:
Assay in all cases: DTP human tumour cell line panel, 48 h
786-0 = system: 786-0
A498 = system: A498
A549 = system: A549
ACHN = system: ACHN
CAKI-1 = system: CAKI-1
CCRF-CEM = system: CCRF-CEM
COLO 205 = system: COLO 205
DU-145 = system: DU-145
EKVX = system: EKVX
HCC 2998 = system: HCC 2998
HCT-116 = system: HCT-116
HCT-15 = system: HCT-15
HL-60 = system: HL-60
HOP-62 = system: HOP-62
HOP-92 = system: HOP-92
HT-29 = system: HT-29
Hs-578T = system: Hs-578T
IGROV-1 = system: IGROV-1
K562 = system: K562
KM12 = system: KM12
LOX IMVI = system: LOX IMVI
M14 = system: M14
MCF7 = system: MCF7
MDA-MB-231 = system: MDA-MB-231
MDA-MB-435 = system: MDA-MB-435
MDA-N = system: MDA-N
MOLT-4 = system: MOLT-4
Malme-3M = system: Malme-3M
NCI-H226 = system: NCI-H226
NCI-H23 = system: NCI-H23
NCI-H460 = system: NCI-H460
NCI-H522 = system: NCI-H522
NCI/ADR-RES = system: NCI/ADR-RES
OVCAR-3 = system: OVCAR-3
OVCAR-4 = system: OVCAR-4
OVCAR-5 = system: OVCAR-5
OVCAR-8 = system: OVCAR-8
PC-3 = system: PC-3
RPMI-8226 = system: RPMI-8226
RXF 393 = system: RXF 393
SF-268 = system: SF-268
SF-295 = system: SF-295
SF-539 = system: SF-539
SK-MEL-28 = system: SK-MEL-28
SK-MEL-2 = system: SK-MEL-2
SK-MEL-5 = system: SK-MEL-5
SN12C = system: SN12C
SNB-19 = system: SNB-19
SNB-75 = system: SNB-75
SR = system: SR
SW-620 = system: SW-620
T47D = system: T47D
TK-10 = system: TK-10
U-251 = system: U-251
UACC-257 = system: UACC-257
UACC-62 = system: UACC-62

With `O=C(CCCN1CCC2(CC1)/C(=N/C1CCCCC1)NC(=O)N2c1ccccc1)c1ccc(F)cc1` the GI50 (786-0) was 20.8 µM (inactive), the GI50 (A498) was 15.2 µM (inactive) and the GI50 (A549) was 44.4 µM (inactive). For the same compound, the GI50 (ACHN) was 31.7 µM (inactive), the GI50 (CAKI-1) was > 100 µM (inactive) and the GI50 (CCRF-CEM) was 23.4 µM (inactive). For the same compound, the GI50 (COLO 205) was 16.1 µM (inactive), the GI50 (DU-145) was 41.2 µM (inactive) and the GI50 (EKVX) was 29.8 µM (inactive). For the same compound, the GI50 (HCC 2998) was 20.6 µM (inactive), the GI50 (HCT-116) was 21.3 µM (inactive) and the GI50 (HCT-15) was 28.3 µM. The GI50 (HL-60) was 23.1 µM (inactive), the GI50 (HOP-62) was 20.9 µM (inactive) and the GI50 (HOP-92) was 17.1 µM (inactive). For the same compound, the GI50 (HT-29) was 17.9 µM (inactive), the GI50 (Hs-578T) was 33.4 µM (inactive) and the GI50 (IGROV-1) was 26.7 µM (inactive). The GI50 (K562) was 29.8 µM (inactive), the GI50 (KM12) was 19.8 µM (inactive) and the GI50 (LOX IMVI) was 14.2 µM (inactive). For the same compound, the GI50 (M14) was 17.6 µM (inactive), the GI50 (MCF7) was 14.1 µM (inactive) and the GI50 (MDA-MB-231) was 12.4 µM (inactive). The GI50 (MDA-MB-435) was 20.1 µM (inactive), the GI50 (MDA-N) was 18.2 µM (inactive) and the GI50 (MOLT-4) was 21.9 µM (inactive). For the same compound, the GI50 (Malme-3M) was 12.7 µM (inactive), the GI50 (NCI-H226) was 14.9 µM (inactive) and the GI50 (NCI-H23) was 21.3 µM (inactive). The GI50 (NCI-H460) was 22.7 µM (inactive), the GI50 (NCI-H522) was 24.7 µM (inactive) and the GI50 (NCI/ADR-RES) was 19.2 µM (inactive). For the same compound, the GI50 (OVCAR-3) was 11.6 µM (inactive), the GI50 (OVCAR-4) was 31.7 µM (inactive) and the GI50 (OVCAR-5) was 20.9 µM (inactive). For the same compound, the GI50 (OVCAR-8) was 28.4 µM (inactive), the GI50 (PC-3) was 21.6 µM (inactive) and the GI50 (RPMI-8226) was 20.9 µM (inactive). The GI50 (RXF 393) was 39.5 µM (inactive), the GI50 (SF-268) was 19 µM (inactive) and the GI50 (SF-295) was 19.5 µM (inactive). For the same compound, the GI50 (SF-539) was 18.8 µM (inactive), the GI50 (SK-MEL-28) was 18.6 µM (inactive) and the GI50 (SK-MEL-2) was 17.7 µM (inactive). For the same compound, the GI50 (SK-MEL-5) was 23.1 µM (inactive), the GI50 (SN12C) was 18.4 µM (inactive) and the GI50 (SNB-19) was > 100 µM (inactive). The GI50 (SNB-75) was 17.2 µM (inactive), the GI50 (SR) was 16.7 µM (inactive) and the GI50 (SW-620) was > 100 µM (inactive). For the same compound, the GI50 (T47D) was 29.9 µM (inactive), the GI50 (TK-10) was 22.5 µM (inactive) and the GI50 (U-251) was 33.1 µM (inactive). For the same compound, the GI50 (UACC-257) was 21.5 µM (inactive) and the GI50 (UACC-62) was 22.3 µM (inactive).
